Results taken from paper PMC6401853, “Fabrication of Carbohydrate Chips Based on Polydopamine for Real-Time Determination of Carbohydrate–Lectin Interactions by QCM Biosensor” (Polymers, 2018).

Target: wheat germ agglutinin (WGA)
Assay: QCM biosensor kinetics, lectin over immobilized amino-GlcNAc derivative on polydopamine chip, […] fit
Format: binding

CC(=O)N[C@H]1C(O)O[C@H](CO)[C@@H](O)[C@@H]1O (stereo partly shown) [N-Acetylglucosamine]
Kd: 47.2 nM
